The test deals with ovariectomized SD female rats. The experiment in a line: In vivo anti-osteoporosis assay, digital medical image analysis of femurs (DXA / Micro-CT). On the set-up: species or system rat. Particulars: femur, OVX SD female rats, oral, 3 months, L 50 mg/kg, E2 estrogen 50 μg/kg, mean ± S.E.M., n=6. As to the method: In this example, an in vivo assay for anti-osteoporosis activity of the Pennisetum extract was carried out on ovariectomized SD female rats in an animal feeding experiment mode, and the analysis of the femur bone mineral density and trabecular bone measurement was performed to confirm the pharmacological activity. The experimental method is as follows: (1) Test substance and control substances: The test group (L) uses the Pennisetum alcohol extract prepared in the foregoing Example 1 as the test substance. The blank control group (Control) and the ovariectomized group (OVX) were administered with ethanol as the control substance. The positive control group (E2) was administered with estrogen as the control substance. (2) Test animals: Test animals (including the test group, ovariectomized group and positive control group) were ovariectomized SD female rats, and the test on animals simulating the menopausal mode was started 2 weeks after oophorectomy. The blank control group was SD female rats without oophorectomy (only subjected to sham surgery). (3) Animal feeding management: The feeding environment was temperature 20° C. to 25° C.; humidity 65% to 80%; and lighting time 12 hours (monitoring environment every day). During the acclimation and test period, every 4 female rats were housed in an autoclaved plastic rearing cage (46 cm×25 cm×20 cm). Drinking water was treated with a reverse osmosis pure water machine, and then charged in a high temperature autoclaved plastic bottle to give the test animals for free drinking. (4) Acclimation: Ovariectomized SD female rats delivered by BioLASCO Co., Ltd. were acclimated for one week after entering the laboratory. During this period, clinical symptoms were observed every day, and healthy rats with normal weight gain were confirmed for the test. (5) Administration of test substance and control substances: After one week of acclimation, the experimental rats were orally administered with different doses of Pennisetum alcohol extract, ethanol or estrogen for 3 consecutive months, and then all the experimental rats were fasted one night before sacrifice to simulate the clinically applicable route of administration for the human body. During the 3 consecutive months of testing, according to the weight of the day before the administration, the test group was administered with a solution of the Pennisetum alcohol extract (10 mL/kg), which was prepared by dissolving 50 mg of Pennisetum alcohol extract in 10.0 mL of 10% ethanol; the blank control group and the ovariectomized group were administered with 10% ethanol (10.0 mL/kg); and the positive control group was administered with estrogen, which was dissolved in 10% ethanol (10.0 mL/kg). (6) The animal grouping was performed according to the body weight in an S-type order after the animals gained weight. The bone density (mass/volume) of the appropriate bone was measured by a dual energy X-ray absorptiometer (DXA) or micro-computerized tomography (Micro-CT, μ-CT; also used to measure the trabecular number). During the measurement, the DXA with two different energies was used to scan the inspection site, then the X-rays passing through the tested site was received by a scintillation detector, and then a computer analyzed the data to calculate the bone quality of the tested site. The records of the percentage of bone mass (bone volume/tissue volume), trabecular separation/spacing (Tb.Sp), trabecular number (Tb.N) and bone mineral density (BMD) in each group are shown in Table 5. It is represented by mean±standard error (S.E.M.) (n=6), and a, b, c, and d in the table represent statistical differences between the groups. The experimental data were statistically analyzed by one-way ANOVA. The statistical method of correlation index changes between the groups was statistically analyzed by Duncan test. […]

Where [1] appears, read: listed as positive control group.

These results are taken from patent publication US11033599B2, “Pennisetum extract, process for manufacturing the same and uses thereof” (METAL INDUSTRIES RESEARCH & DEVELOPMENT CENTRE, priority 2017, dated 2021).

With estrogen [E2], the “Bone Mineral Density” value was 0.619 mg/cm^2, the “Percentage of Bone Mass (bone volume/tissue volume)” value turned out to be 10.512%, the “Trabecular Number (Tb.N)” value is recorded as 0.908 ± 1/mm and the “Trabecular Separation/Spacing (Tb.Sp)” value worked out at 1.103 mm. Under setting [1], the “Percentage of Bone Mass (bone volume/tissue volume)” value was 10.512±1.071% and the “Trabecular Number (Tb.N)” value is recorded as 0.908±0.085 1/mm.
